Results as given in patent publication US20250257059A1, “PROTEIN TYROSINE PHOSPHATASE INHIBITORS AND USES THEREOF” (Nerio Therapeutics, Inc., priority 2022, published 2025).

Key:
[1] = tested on: murine B16F10 melanoma cell line; assay: B16F10 IFNγ-induced cellular growth inhibition assay (xCELLigence RTCA); format: cell-based; settings: Mus musculus, B16-F10, 48 h, B16F10 cells, 1 ng/mL mouse IFNγ, AUC of growth curve, read-out: B16 IFNγ Mediated Growth Inhibition Assay: AVG IC50
Description: Compound activity was determined using an interferon gamma (IFNγ)-induced cellular growth inhibition assay with the murine B16F10 melanoma cell line on an Agilent xCELLigence Real-Time Cell Analysis platform (RTCA). RTCA E-Plate View 96 plates (Agilent, 300601010) were pre-equilibrated with 50 μL of assay media (DMEM+10% FBS, Gibco 10566-024, Gibco 10082-147) at 37° C. in a humidified incubator before taking an initial measurement of impedance (sweep). B16F10 cells cultured in assay media were dissociated with TrypLE Express (Gibco 12605-010) for five minutes at 37° C., diluted in 3 volumes of assay buffer, centrifuged for 5 minutes at 500×g at room temperature before diluting cells to 7,700 cells/mL in assay media, plating 130 μL/well (1,000 cells/well) in the inner 60 wells of the assay plate, and adding 150 μL of assay media to the outer wells of the plate. Cells were incubated at room temperature for 20 min to allow cells to settle before placing them in the xCELLigence reader and incubating overnight at 37° C., sweeping wells every 15 minutes. After 24 hours, well readings were paused, plates were removed from the incubator and compounds were added using a Tecan D300e dispenser. All wells were normalized to a final concentration of 0.5% DMSO. Following a 30 min incubation at 37° C., recombinant mouse IFNγ (R&D Systems™ 485MI100) was diluted to 10 ng/mL in assay media and 20 μL was added to assay wells (1 ng/mL final concentration). Assay plates were placed in the xCELLigence reader and swept every 15 minutes.

[2] = target: full-length human PTPN2 (TC45) (1-387) (Homo sapiens (Human), UniProt P17706); assay: Enzymatic assay used to determine potency of PTPN2 inhibitors (full length PTPN2 DiFMUP assay); format: biochemical; settings: 0.5 nM PTPN2, 100 μM DiFMUP, 30 min at room temperature
Sequence of full-length human PTPN2 (TC45) (1-387) (P17706 other isoform, or with tags, fused parts or gaps): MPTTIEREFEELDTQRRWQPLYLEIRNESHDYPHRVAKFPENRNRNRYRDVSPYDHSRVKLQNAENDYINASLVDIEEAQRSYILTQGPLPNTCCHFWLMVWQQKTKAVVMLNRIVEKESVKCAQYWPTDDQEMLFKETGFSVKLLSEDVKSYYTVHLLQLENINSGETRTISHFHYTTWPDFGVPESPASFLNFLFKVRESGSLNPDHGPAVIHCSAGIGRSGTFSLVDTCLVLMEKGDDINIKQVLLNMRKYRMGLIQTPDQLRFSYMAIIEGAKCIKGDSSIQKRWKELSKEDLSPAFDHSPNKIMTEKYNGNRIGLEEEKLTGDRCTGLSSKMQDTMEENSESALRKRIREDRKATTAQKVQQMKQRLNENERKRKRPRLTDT
Description: Compound activity was determined in an in vitro enzymatic assay using untagged, full-length human PTPN2 (TC45) (1-387) protein. PTPN2 was produced in E. coli as a GST-TEV fusion and the GST was removed by TEV digestion, followed by additional purification to yield full-length PTPN2 (SEQ ID 1). PTPN2 enzyme was diluted in assay buffer (50 mM HEPES pH7.5, 0.2 mM EDTA, 1 mM DTT, 0.02% Brij-35, 0.02% BSA) to a final concentration of 0.5 nM and added to black 384-well non-binding plates (Greiner, 781900). Compounds were subsequently added using a Tecan D300e dispenser. Following a 10 min incubation at room temperature, DiFMUP substrate (ThermoFisher, D22065) was added to a final concentration of 100 μM. Plates were transferred to a SpectraMax plate reader (Molecular Devices) and fluorescence intensity was measured (ex 358, em 455) after a 30 min incubation at room temperature. […] A four-parameter curve fit was used to determine IC50 values from % inhibition data.

| SMILES | IC50 [1] [nM] | IC50 [2] [nM] |
| --- | --- | --- |
| O=C1CN(c2c(O)cc(CCN3CCC(F)C3)cc2F)S(=O)(=O)N1 (stereo not drawn) [Example 92] | 504 | 3 |
| O=C1CN(c2c(O)cc(CCN3CC[C@H](F)C3)cc2F)S(=O)(=O)N1 [Example 94] | 469 | 2 |
| O=C1CN(c2c(O)cc(CCN3CC[C@@H](F)C3)cc2F)S(=O)(=O)N1 [Example 95] | 432 | 2 |
| O=C1CN(c2c(O)cc(CCN3CCC(C(F)(F)F)C3)cc2F)S(=O)(=O)N1 (stereo not drawn) [Example 96] | 680 | 2 |
| O=C1CN(c2c(O)cc(CCN3CCC(CO)C3)cc2F)S(=O)(=O)N1 (stereo not drawn) [Example 102] | 605 | 2 |
| O=C1CN(c2c(O)cc(CCN3CCC(O)C3)cc2F)S(=O)(=O)N1 (stereo not drawn) [Example 103] | 13200 | 50 |
| CC[C@H]1CCN(CCc2cc(O)c(N3CC(=O)NS3(=O)=O)c(F)c2)C1 [Example 109] | 162 | 3 |
| CC[C@@H]1CCN(CCc2cc(O)c(N3CC(=O)NS3(=O)=O)c(F)c2)C1 [Example 110] | 127 | 2 |
| O=C1CN(c2c(O)cc(CCN3CC4(CCCC4)C3)cc2F)S(=O)(=O)N1 [Example 114] | 371 | 7 |
| O=C1CN(c2c(O)cc(CCN3CCC4(CCCCC4)C3)cc2F)S(=O)(=O)N1 [Example 116] | 172 | 2 |
| CC(C)(C)C1CCN(CCc2cc(O)c(N3CC(=O)NS3(=O)=O)c(F)c2)CC1 [Example 118] | 3220 | 3 |
| O=C1CN(c2c(O)cc(CCN3CCC(C4CCC4)CC3)cc2F)S(=O)(=O)N1 [Example 121] | 2830 | 2 |
| CCC1CN(CCc2cc(O)c(N3CC(=O)NS3(=O)=O)c(F)c2)C1 [Example 126] | 775 | 3 |
| CC(C)(C)C1CN(CCc2cc(O)c(N3CC(=O)NS3(=O)=O)c(F)c2)C1 [Example 129] | 660 | 2 |
| O=C1CN(c2c(O)cc(CCN3CCC(CC(F)(F)F)C3)cc2F)S(=O)(=O)N1 (stereo not drawn) [Example 130] | 208 | 1 |

Continued, in another order:

| IC50 [1] [nM] | SMILES | IC50 [2] [nM] |
| --- | --- | --- |
| 475 | CC1(C)CCN(CCc2cc(O)c(N3CC(=O)NS3(=O)=O)c(F)c2)CC1 [Example 93] | 3 |
| 1050 | O=C1CN(c2c(O)cc(CCN3CCC(F)(F)CC3)cc2F)S(=O)(=O)N1 [Example 98] | 5 |
| 183 | O=C1CN(c2c(O)cc(CCN3CCC4(CCC4)C3)cc2F)S(=O)(=O)N1 [Example 99] | 2 |
| 51000 | O=C1CN(c2c(O)cc(CCN3CCNCC3)cc2F)S(=O)(=O)N1 [Example 100] | 5 |
| 1690 | O=C1CN(c2c(O)cc(CCN3CCC(O)CC3)cc2F)S(=O)(=O)N1 [Example 101] | 2 |
| 219 | O=C1CN(c2c(O)cc(CCN3CCC4(CCC4)CC3)cc2F)S(=O)(=O)N1 [Example 105] | 3 |
| 256 | CC1(F)CCN(CCc2cc(O)c(N3CC(=O)NS3(=O)=O)c(F)c2)C1 (stereo not drawn) [Example 106] | 2 |
| 256 | O=C1CN(c2c(O)cc(CCN3CCC4(CC3)CC4)cc2F)S(=O)(=O)N1 [Example 107] | 2 |
| 129 | CC1(C)CCN(CCc2cc(O)c(N3CC(=O)NS3(=O)=O)c(F)c2)C1 [Example 108] | 2 |
| 943 | O=C1CN(c2c(O)cc(CCN3CC4(CCC4)C3)cc2F)S(=O)(=O)N1 [Example 124] | 2 |
| 3090 | CCC1CCN(CCc2cc(O)c(N3CC(=O)NS3(=O)=O)c(F)c2)CC1 [Example 125] | 2 |
| 489 | O=C1CN(c2c(O)cc(CCN3CCC4(CC4)C3)cc2F)S(=O)(=O)N1 [Example 131] | 1 |
